Source: ChEMBL document CHEMBL3046909, “C(18) acetylenic fatty acids of Ximenia americana with potential pesticidal activity” (J Agric Food Chem, 2000)
Converted amounts (≈) assume the structure as drawn.

Key:
[1] = system: Clavigralla tomentosicollis; assay: Inhibition of hatching of Clavigralla tomentosicollis eggs in pods of cowpea at 4x10'4 ug/mL spray measured after 6 days; type: functional
[2] = (§1) Toxicity in Artemia (brine shrimps) larvae; type: organism-based; settings: in vivo
[3] = system: Artemia; assay: as §1; type: organism-based; settings: in vivo

Question: Which results are given for `C/C=C/C=C/C#C/C=C\CCCCCCCCC(=O)O`?
Answer: inhibition (INH) [1]: 92%; LC50 [2]: 20 µg/mL (≈ 72.9 µM)

Question: With `CC[C@H](CC[C@@H](C)[C@H]1CC[C@H]2[C@@H]3CC=C4C[C@@H](O)CC[C@]4(C)[C@H]3CC[C@]12C)C(C)C` [BETA-SITOSTEROL] as the compound, how does the Activity [3] read?
Answer: Non-toxic
